Laboratory results: ChEMBL document CHEMBL1125978 (Bioorg Med Chem Lett, 1991)

Experiments:
[1] = molecular target: T1, Muscarinic acetylcholine receptor (Rattus norvegicus) (UniProt P08482+P08483+P08485+P08911+P10980); conditions: 1.0 uM
[2] = molecular target: T1, Muscarinic acetylcholine receptor (Rattus norvegicus); conditions: 0.1 uM
SK-N-SH [3] = experiment: Phosphoinositide (PI) turnover was assessed by the ability to stimulate [3H]- inositol phosphate accumulation in human SK-N-SH neuroblastoma cells relative to carbachol; type: functional
[4] = molecular target: T2, Muscarinic acetylcholine receptor M1 (Rattus norvegicus, UniProt P08482)
T2 sequence (P08482 whole entry): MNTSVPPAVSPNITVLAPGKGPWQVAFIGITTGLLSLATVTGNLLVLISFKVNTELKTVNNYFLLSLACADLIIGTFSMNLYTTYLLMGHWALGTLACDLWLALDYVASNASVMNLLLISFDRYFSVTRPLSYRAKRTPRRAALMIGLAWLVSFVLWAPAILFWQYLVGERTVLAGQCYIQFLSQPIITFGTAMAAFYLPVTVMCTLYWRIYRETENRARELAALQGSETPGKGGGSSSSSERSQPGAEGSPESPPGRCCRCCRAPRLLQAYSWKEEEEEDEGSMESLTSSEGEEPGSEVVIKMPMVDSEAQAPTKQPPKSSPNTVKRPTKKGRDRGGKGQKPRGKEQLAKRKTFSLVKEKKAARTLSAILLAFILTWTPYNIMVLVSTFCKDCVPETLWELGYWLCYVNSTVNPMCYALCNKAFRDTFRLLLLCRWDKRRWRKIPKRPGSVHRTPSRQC
Description: Compound was evaluated for the displacement of the muscarinic QNB in a genetically transformed rat cell line (m1c2) transfected with cloned m1 receptors (m1-QNBm1c2)

[5] = molecular target: Muscarinic acetylcholine receptor
[6] = molecular target: Muscarinic acetylcholine receptor; remark: listed apart in the source
Description: Compound was evaluated for its ability to displace muscarinic antagonist [3H]cis-methyldioxolane in rat cortical tissue (RQNB binding assay), at 1.0 uM concentration

[7] = molecular target: T3, Muscarinic acetylcholine receptor M2 (Rattus norvegicus, UniProt P10980); experiment: biochemical
T3 sequence (P10980 whole entry): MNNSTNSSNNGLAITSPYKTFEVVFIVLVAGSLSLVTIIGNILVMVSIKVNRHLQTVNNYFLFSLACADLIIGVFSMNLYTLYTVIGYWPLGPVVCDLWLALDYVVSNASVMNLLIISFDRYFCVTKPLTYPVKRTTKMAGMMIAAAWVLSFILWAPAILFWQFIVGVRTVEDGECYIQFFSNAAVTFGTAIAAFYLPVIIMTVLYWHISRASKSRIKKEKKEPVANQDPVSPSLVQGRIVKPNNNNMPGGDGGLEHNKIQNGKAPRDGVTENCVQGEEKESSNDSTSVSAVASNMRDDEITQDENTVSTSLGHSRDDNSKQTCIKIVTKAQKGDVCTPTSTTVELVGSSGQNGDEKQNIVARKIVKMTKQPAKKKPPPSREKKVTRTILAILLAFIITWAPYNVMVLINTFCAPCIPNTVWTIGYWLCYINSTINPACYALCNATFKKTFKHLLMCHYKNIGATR
Description: Compound was evaluated for the displacement of the muscarinic QNB in rat heart homogenate containing the pharmacologic M2 receptor (M2-QNB heart)

SK-N-SH [8] = system: SK-N-SH

| SMILES | inhibition [1] [%] | inhibition [2] [%] | further results |
| --- | --- | --- | --- |
| CCCN1C(=O)OC[C@@H]1Cc1cn(C)cn1 | 10 | 2 | – |
| CCN1C(=O)OC[C@@H]1Cc1cncn1C | – | – | PI turnover (SK-N-SH [3]): 16%; IC50 [4]: 12.7 µM; IC50 [5]: 0.043 µM; IC50 [6]: 8.9 µM; IC50 [7]: 30.9 µM |
| CCCN1C(=O)OC[C@@H]1Cc1cncn1C | – | – | IC50 [5]: 73 µM; IC50 [6]: 3300 µM |
| CCN1C(=O)OC[C@@H]1Cc1c[nH]cn1 | 4 | 4 | – |
| O=C1CCCN1CC#CCN1CCCC1 [OXOTREMORINE] | – | – | IC50 [4]: 0.36 µM; PI turnover (SK-N-SH [8]): 33%; IC50 [7]: 0.86 µM |
| CCCN1C(=O)OC[C@@H]1Cc1c[nH]cn1 | 4 | 2 | – |
| C[N+](C)(C)CCOC(N)=O.[Cl-] [CARBACHOL] | – | – | PI turnover (SK-N-SH [8]): 100% |

Second part, led by results:

| inhibition [1] [%] | inhibition [2] [%] | SMILES | further results |
| --- | --- | --- | --- |
| 0 | 0 | CN1C(=O)OC[C@@H]1Cc1c[nH]cn1 | – |
| 0 | 6 | CCN1C(=O)OC[C@H]1Cc1cncn1C | – |
| 1 | 0 | CCN1C(=O)OC[C@H]1Cc1cn(C)cn1 | – |
| 2 | 0 | CCN1C(=O)OC[C@H]1Cc1c[nH]cn1 | – |
| 2 | 11 | CN1C(=O)OC[C@@H]1Cc1cncn1C | – |
